The values below come from article PMC12670405, “Second-Generation AURKA-Targeting PROTACs: Structural Optimization toward in Vivo Degradation in Neuroblastoma” (Journal of Medicinal Chemistry, 2025).

For orientation: DC50 means the concentration at which degradation of the target reaches its halfway point.

Read-outs that look alike come from different tables or passages of the source.

One experiment has as its target T1, AURKA (Homo sapiens, UniProt O14965).
T1 sequence (O14965 1-403): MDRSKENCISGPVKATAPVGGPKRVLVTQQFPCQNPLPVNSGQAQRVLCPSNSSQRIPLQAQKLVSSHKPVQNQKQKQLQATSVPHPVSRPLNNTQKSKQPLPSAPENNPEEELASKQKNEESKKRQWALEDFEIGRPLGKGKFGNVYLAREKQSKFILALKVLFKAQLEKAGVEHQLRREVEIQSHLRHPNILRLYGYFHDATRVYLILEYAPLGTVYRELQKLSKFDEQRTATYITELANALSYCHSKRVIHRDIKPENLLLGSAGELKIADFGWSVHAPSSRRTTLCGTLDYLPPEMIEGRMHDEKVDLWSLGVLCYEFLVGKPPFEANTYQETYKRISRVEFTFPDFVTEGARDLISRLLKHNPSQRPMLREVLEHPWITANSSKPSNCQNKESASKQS
The experiment can be described thus: AURKA degradation, Simple Western.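 As to AURKA Degradation 24h @1000nM: measured in NGP neuroblastoma cells.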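 As to AURKA Degradation 24h @100nM: measured in NGP neuroblastoma cells.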 Format: cell-based. Set-up: Representative Western blot showing levels of endogenous proteins MDR1, MYCN, AURKA, and CRBN in untreated cell lines; endogenous in cells; host or cells: NGP, IMR-32, SJNB-8, SK-N-BE(2)-C, SK-N-SH, SK-N-AS, SJNB-1, RPE, HEK293T. The following applies: for pDC50: AURKA degradation; for DC50: read-out: AURKA DC50; for AURKA degradation activity (in words): NGP, 24 h treatment. The protocol: Cells were seeded in T-25 flasks at different densities ranging from 1 to 2 million cells per flask and allowed to adhere for 1–2 days. In experiments involving compound treatment, this was done by medium replacement containing the compound(s) of interest in their corresponding concentrations. In competition binding experiments, cells were first pretreated with an excess of MK-5108, thalidomide or MG-132 for 1 h by shaking gently at room temperature prior to addition of SK4454 or SK5527. All samples were normalized to contain the same percentage of DMSO as the negative DMSO controls. Cells were harvested on ice at their respective time points by scraping, washed with ice-cold PBS to collect remaining cells, and centrifuged (2500 rpm, 4 °C). A second washing and centrifugation step was performed prior to collection of the final cell pellets which were then snap-frozen in liquid nitrogen and kept frozen at −80 °C until further processing. Lysis of cell pellets occurred in cold RIPA buffer (0.5% w/v Sodium Deoxycholate, 150 mM NaCl, 50 mM TrisHCl pH 7.5, 0.1% w/v SDS, 1% w/v NP-40) supplemented with protease and phosphatase inhibitors (Roche, #11836145001, #04906845001) by rotating gently at 4 °C for 1h, followed by a centrifugation step for 10 min (10,000 rpm, 4 °C). The supernatant was collected and concentrations of the obtained protein lysates were measured using the Pierce BCA Protein Assay Kit (Thermo Fisher Scientific, #23227).
Simple Western analyses were performed with the Wes instrument (Bio-Techne) using the 12–230 kDa Wes Separation module and the EZ standard pack reagent 1 (Biotechne, #SM-W001, #PS-ST01EZ-8) following the manufacturer’s protocol. Protein lysates were loaded at 0.8 μg/μL under denaturing conditions (0.2 μg/μL for MYCN detection). Chemiluminescence peaks were generated by the Compass Software (Bio-Techne) and the area under the peaks calculated using the Gaussian fit method. Per lane, quantified data were always normalized to that of the loading control (Vinculin) prior to calculating fold changes relative to the negative DMSO control. Mean fold changes are calculated from 3 individual experiments. A list of the primary and secondary antibodies used can be found in the Supporting Information (Supplementary Table S7).
Graphs were generated using GraphPad Prism Software (version 10.1.2) or RStudio (R-4.3.2). All dose–response curves were computed on GraphPad Prism using the Variable Slope (four parameters) equation. Absolute half-maximal degradation (DC50), growth inhibitory (GI50) and enzymatic inhibitory (IC50) concentrations, as well as inhibition constants (Ki) were derived from dose–response curves via interpolation. Statistical tests were performed on GraphPad Prism and detailed in the figure legends. Unless otherwise stated, “n” in the figure legends indicates the number of independent experiments conducted at different times.

The test system of another experiment is NGP. The experiment can be described thus: IncuCyte live-cell imaging, antiproliferative effect. The following applies: Homo sapiens, 72 h. Format: cell-based. From the text:
Human neuroblastoma cell lines NGP, IMR-32, SJNB-8, SK-N-BE(2)-C, SJNB-1, SK-N-SH and SK-N-AS, as well as benign immortalized cell lines RPE and HEK293T were either bought commercially or obtained through research laboratories. […] Screening for mycoplasma contamination occurred routinely on the cells. Human neuroblastoma cell lines SH-SY5Y_shABCB1 & SH-SY5Y_shNTC were generated by transduction with pLKO.1-ABCB1_TRCN0000059683 shRNA (Sigma MISSION SHCLND) or pLKO.1-puro NT shRNA (Sigma MISSION SHC002) vectors respectively (Supplementary Table S6), packaged using Lenti-X293T (Clontech). Transduced cells were selected with 2 μg/mL puromycin. These cells were cultured in DMEM 4.5 g/L D-Glucose, L-Glutamine and 110 mg/L Sodium Pyruvate (Gibco, #11995065) supplemented with 10% fetal bovine serum, 1× Antibiotic-Antimycotic solution (Sigma-Aldrich, #A5955) and 1× MEM nonessential amino acids (Sigma-Aldrich, #M7145). Incubation of all cells occurred at 37 °C and 5% CO2.
Neuroblastoma cells were seeded in 384-well plates at different densities ranging from 1200 to 5000 cells/well and allowed to adhere overnight. RPE and HEK293T were seeded at 200 and 600 cells/well, respectively. Compound treatment was performed using the D300e Digital Dispenser (Tecan) in duplicate or triplicate and cell confluency was monitored over time using the IncuCyte Live-cell imaging system (Sartorius). […] Mean normalized confluences were calculated from 3 individual experiments.
All dose–response curves were computed on GraphPad Prism using the Variable Slope (four parameters) equation. Absolute half-maximal degradation (DC50), growth inhibitory (GI50) and enzymatic inhibitory (IC50) concentrations, as well as inhibition constants (Ki) were derived from dose–response curves via interpolation. Statistical tests were performed on GraphPad Prism and detailed in the figure legends. Unless otherwise stated, “n” in the figure legends indicates the number of independent experiments conducted at different times.

For the compound `O=C1CCC(N2C(=O)c3cccc(N4CCN(C(=O)COCCOCCNC(=O)[C@]5(Cc6cccc(Nc7nccs7)n6)CC[C@@H](Oc6cccc(Cl)c6F)CC5)CC4)c3C2=O)C(=O)N1` (some centres unmarked) [PROTAC 2], the “AURKA Degradation 24h @100nM” value on AURKA turned out to be 70. At AURKA, the “AURKA Degradation 24h @1000nM” value amounted to 81. Moreover, the GI50 with NGP (read-out: GI50 72h, 72h) is 0.072 µM; with NGP (read-out: pGI50 (converted)), 0.0724 µM.
As to `O=C1CCC(N2C(=O)c3ccc(N4CCN(C(=O)CNC(=O)[C@]5(Cc6cccc(Nc7nccs7)n6)CC[C@@H](Oc6cccc(Cl)c6F)CC5)CC4)cc3C2=O)C(=O)N1` (some centres unmarked) [PROTAC 5], at AURKA, the “AURKA Degradation 24h @100nM” value was 76 and the “AURKA Degradation 24h @1000nM” value is given as 75. For the same compound, the GI50 with NGP (read-out: GI50 72h, 72h) was 0.051 µM. Also, in the experiment on NGP (read-out: pGI50 (converted)), the GI50 was 0.0513 µM.
Turning to `O=C1CCC(N2C(=O)c3ccc(N4CCN(CCOCCNC(=O)[C@]5(Cc6cccc(Nc7nccs7)n6)CC[C@@H](Oc6cccc(Cl)c6F)CC5)CC4)cc3C2=O)C(=O)N1` (some centres unmarked) [PROTAC 6], at AURKA, the “AURKA Degradation 24h @100nM” value amounted to 76 and the “AURKA Degradation 24h @1000nM” value was found to be 82. Further, in the experiment with NGP (read-out: GI50 72h, 72h), the GI50 was determined as 0.064 µM. For the same compound, the GI50 in the experiment with NGP (read-out: pGI50 (converted)) is 0.0631 µM.
Taken in the same sequence, the figures for `O=C1CCC(N2C(=O)c3ccc(N4CCN(C(=O)COCCNC(=O)[C@]5(Cc6cccc(Nc7nccs7)n6)CC[C@@H](Oc6cccc(Cl)c6F)CC5)CC4)cc3C2=O)C(=O)N1` (some centres unmarked) [PROTAC 7] were 68, 77, 0.112 µM and 0.112 µM.
On to `O=C1CCC(N2C(=O)c3ccc(N4CCN(CCOCCOCCNC(=O)[C@]5(Cc6cccc(Nc7nccs7)n6)CC[C@@H](Oc6cccc(Cl)c6F)CC5)CC4)cc3C2=O)C(=O)N1` (some centres unmarked) [PROTAC 8], for which, on AURKA, the “AURKA Degradation 24h @100nM” value is on record as 76 and the “AURKA Degradation 24h @1000nM” value was determined as 75. For the same compound, in the experiment with NGP (read-out: GI50 72h, 72h), the GI50 turned out to be 0.056 µM. Moreover, the GI50 in the experiment with NGP (read-out: pGI50 (converted)) was 0.0562 µM.
The matching figures for `O=C1CCC(N2C(=O)c3ccc(N4CCN(C(=O)COCCOCCNC(=O)[C@]5(Cc6cccc(Nc7nccs7)n6)CC[C@@H](Oc6cccc(Cl)c6F)CC5)CC4)cc3C2=O)C(=O)N1` (some centres unmarked) [PROTAC 9]: 64, 83, 0.112 µM and 0.112 µM.
The matching figures for `O=C1CCC(N2C(=O)c3ccc(OCCN4CCN(C(=O)[C@]5(Cc6cccc(Nc7nccs7)n6)CC[C@@H](Oc6cccc(Cl)c6F)CC5)CC4)cc3C2=O)C(=O)N1` (some centres unmarked) [PROTAC 10]: 72, 80, 0.052 µM and 0.0525 µM.
On to `O=C1CCC(N2C(=O)c3ccc(OCCOCCN4CCN(C(=O)[C@]5(Cc6cccc(Nc7nccs7)n6)CC[C@@H](Oc6cccc(Cl)c6F)CC5)CC4)cc3C2=O)C(=O)N1` (some centres unmarked) [PROTAC 11], for which, at AURKA, the “AURKA Degradation 24h @100nM” value is recorded as 78, the “AURKA Degradation 24h @1000nM” value is 80, the pDC50 is listed as 8,31 and the 50% degradation concentration (DC50) turned out to be 0.0049 µM. Besides, the GI50 with NGP (read-out: GI50 72h, 72h) was found to be 0.038 µM. In addition, in the experiment on NGP (read-out: pGI50 (converted)), the GI50 was 0.038 µM.
In the case of `O=C1CCC(Nc2ccc(N3CCN(C(=O)[C@]4(Cc5cccc(Nc6nccs6)n5)CC[C@@H](Oc5cccc(Cl)c5F)CC4)CC3)cc2)C(=O)N1` (some centres unmarked) [PROTAC 12], at AURKA, the “AURKA Degradation 24h @100nM” value is reported as 12; the “AURKA Degradation 24h @1000nM” value is recorded as less than 0; the “AURKA degradation activity (in words)” value was “failed to reduce AURKA levels and instead led to its upregulation”. Moreover, in the experiment with NGP (read-out: GI50 72h, 72h), the GI50 was 0.715 µM. For the same compound, the GI50 with NGP (read-out: pGI50 (converted)) is 0.708 µM.
As for `O=C1CCC(Nc2ccc(N3CCN(CCNC(=O)[C@]4(Cc5cccc(Nc6nccs6)n5)CC[C@@H](Oc5cccc(Cl)c5F)CC4)CC3)cc2)C(=O)N1` (some centres unmarked) [PROTAC 13], at AURKA, the “AURKA Degradation 24h @100nM” value was determined as 68, the “AURKA Degradation 24h @1000nM” value was found to be 91, the pDC50 is on record as 7,9 and the 50% degradation concentration (DC50) stood at 0.0125 µM. Moreover, in the experiment on NGP (read-out: GI50 72h, 72h), the GI50 was determined as 0.03 µM. Moreover, the GI50 in the experiment on NGP (read-out: pGI50 (converted)) is 0.0295 µM.
`O=C1CCC(Nc2ccc(N3CCN(C(=O)COCCNC(=O)[C@]4(Cc5cccc(Nc6nccs6)n5)CC[C@@H](Oc5cccc(Cl)c5F)CC4)CC3)cc2)C(=O)N1` (some centres unmarked) [PROTAC 15]: at AURKA, the “AURKA Degradation 24h @100nM” value came out at 38, the “AURKA Degradation 24h @1000nM” value was 55 and the “AURKA degradation activity (in words)” value was “only weak AURKA-degrading activity”. Moreover, the GI50 in the experiment with NGP (read-out: GI50 72h, 72h) came out at 0.093 µM. In addition, in the experiment on NGP (read-out: pGI50 (converted)), the GI50 is 0.0933 µM.
`O=C1CCC(Nc2ccc(N3CCN(C(=O)COCCOCCNC(=O)[C@]4(Cc5cccc(Nc6nccs6)n5)CC[C@@H](Oc5cccc(Cl)c5F)CC4)CC3)cc2)C(=O)N1` (some centres unmarked) [PROTAC 16]: at AURKA, the “AURKA Degradation 24h @100nM” value is recorded as 39, the “AURKA Degradation 24h @1000nM” value is recorded as 75 and the “AURKA degradation activity (in words)” value was “only weak AURKA-degrading activity”. The GI50 in the experiment with NGP (read-out: GI50 72h, 72h) was determined as 0.078 µM. Besides, the GI50 in the experiment on NGP (read-out: pGI50 (converted)) was 0.0776 µM.
As for `O=C1CCC(Nc2ccc(N3CCN(CC4CN(C(=O)[C@]5(Cc6cccc(Nc7nccs7)n6)CC[C@@H](Oc6cccc(Cl)c6F)CC5)C4)CC3)cc2)C(=O)N1` (some centres unmarked) [PROTAC 17], at AURKA, the “AURKA Degradation 24h @100nM” value turned out to be 59, the “AURKA Degradation 24h @1000nM” value was determined as 88, the pDC50 was 7,29 and the DC50 is 0.0511 µM. Moreover, the GI50 in the experiment on NGP (read-out: GI50 72h, 72h) came out at 0.039 µM. The GI50 in the experiment on NGP (read-out: pGI50 (converted)) was 0.0389 µM.
For the compound `O=C1CCC(Nc2ccc(N3CCN(CC4CCN(C(=O)[C@]5(Cc6cccc(Nc7nccs7)n6)CC[C@@H](Oc6cccc(Cl)c6F)CC5)CC4)CC3)c(F)c2)C(=O)N1` (some centres unmarked) [PROTAC 19], on AURKA, the “AURKA Degradation 24h @100nM” value came to 83 and the “AURKA Degradation 24h @1000nM” value came to 93. The GI50 with NGP (read-out: GI50 72h, 72h) was 0.053 µM. In addition, the GI50 with NGP (read-out: pGI50 (converted)) is 0.0525 µM.
